Test results as given in patent publication US20260167623A1 (NIKANG THERAPEUTICS, INC., priority 2022, published 2026).

What was measured:
CDK2 [1] = molecular target: T1, CDK2 (Homo sapiens, UniProt P24941); assay: High-throughput HTRF measurement of cellular endogenous CDK2 level (degradation, DC50/Dmax) in OVCAR3 cells, 6 h; type: cell-based; conditions: 6 h compound treatment, HTRF total CDK2, read-out: DC50_OVCAR3_6h
T1 construct: High-Throughput Measurement of Cellular Endogenous CDK2; endogenous in cells; host or cells: OVCAR3
Summary of the method: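 DC50 and Dmax were derived by four-parameter logistic fit of the […] TR-FRET ratio, scaled between DMSO (0% degradation) and lysis buffer (100%) controls. The ratio came from an HTRF total-CDK2 sandwich immunoassay on lysates of OVCAR3 cells given 0.03–1,000 nM compound for 6 hours.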

CDK2 [2] = molecular target: T1, CDK2; assay: Inhibition of CDK2: phospho-Rb (S807/811) HTRF measurement in OVCAR3 cells, 24 h; type: cell-based; conditions: 24 h compound treatment, read-out: pRB_OVCAR3_24h
Summary of the method: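 IC50 came from a four-parameter fit of DMSO-normalized TR-FRET ratios (665/620 nm) reporting phospho-Rb S807/811. Lysates were taken from OVCAR3 cultures treated 24 h with compound (0.3 to 10,000 nM) and incubated 4 h at room temperature with the antibody pair.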

CC(Cc1cccc(S(=O)(=O)N2CCC(Nc3ncc(OC(F)F)cn3)CC2)c1)CN1CCC(c2ccc3c(N4CCC(=O)NC4=O)nn(C)c3c2)CC1 (centres unmarked) [Example 66, 1-(6-(1-(3-(3-((4-((5-(difluoromethoxy)-pyrimidin-2-yl)amino)piperidin-1-yl)sulfonyl)phenyl)-2-methylpropyl)-piperidin-4-yl)-1-methyl-1H-indazol-3-yl)dihydropyrimidine-2,4(1H,3H)-dione]
DC50 (CDK2 [1]): 1 to 10 nM
IC50 (CDK2 [2]): 1 to 100 nM

Cc1ncsc1-c1ccc([C@H](C)NC(=O)[C@@H]2C[C@@H](O)CN2C(=O)[C@H](NC(=O)C2CCN(Cc3cccc(S(=O)(=O)N4CCC(Nc5ncc(C(F)(F)F)cn5)CC4)c3)CC2)C(C)(C)C)cc1 [Example 7, N-((R)-1-((2S,4R)-4-hydroxy-2-(((S)-1-(4-(4-methylthiazol-5-yl)phenyl)ethyl)-carbamoyl)pyrrolidin-1-yl)-3,3-dimethyl-1-oxobutan-2-yl)-1-(3-((4-((5-(trifluoro-methyl)pyrimidin-2-yl)amino)piperidin-1-yl)sulfonyl)benzyl) piperidine-4-carboxamide]
DC50 (CDK2 [1]): 100 to 1000 nM
IC50 (CDK2 [2]): 100 to 500 nM

Cn1nc(N2CCC(=O)NC2=O)c2ccc(C3CCC(CN4CCN(c5cccc(S(=O)(=O)N6CCC(Nc7ncc(Cl)cn7)CC6)c5)CC4)CC3)cc21 (centres unmarked) [Example 224, 1-(6-(4-((4-(3-((4-((5-chloropyrimidin-2-yl)amino)piperidin-1-yl)sulfonyl)phenyl)piperazin-1-yl)methyl)cyclohexyl)-1-methyl-1H-indazol-3-yl)dihydropyrimidine-2,4(1H,3H)-dione]
DC50 (CDK2 [1]): 10 to 100 nM
IC50 (CDK2 [2]): 1 to 100 nM

CN(CCCN1CCC(c2cccc3c2n(C)c(=O)n3C2CCC(=O)NC2=O)CC1)c1cccc(S(=O)(=O)N2CCC(Nc3ncc(C(F)(F)F)cn3)CC2)c1 (centres unmarked) [Example 190, 3-(3-methyl-4-(1-(3-(methyl(3-((4-((5-(trifluoromethyl)pyrimidin-2-yl)amino)piperidin-1-yl)sulfonyl)phenyl)amino)propyl)piperidin-4-yl)-2-oxo-2,3-dihydro-1H-benzo[d]imidazol-1-yl)piperidine-2,6-dione]
DC50 (CDK2 [1]): 10 to 100 nM
IC50 (CDK2 [2]): 1 to 100 nM

O=C1CCC(N2Cc3cc(N4CCN(Cc5cccc(S(=O)(=O)N6CCC(Nc7ncc(C(F)(F)F)cn7)CC6)c5)CC4)c(F)cc3C2=O)C(=O)N1 (centres unmarked) [Example 42, 3-(6-fluoro-1-oxo-5-(4-(3-((4-((5-(trifluoro-methyl)pyrimidin-2-yl)amino)piperidin-1-yl)sulfonyl)benzyl)piperazin-1-yl)isoindolin-2-yl)piperidine-2,6-dione]
DC50 (CDK2 [1]): 1 to 10 nM
IC50 (CDK2 [2]): 1 to 100 nM

Cn1nc(N2CCC(=O)NC2=O)c2ccc(C3CCN(Cc4ccc(S(=O)(=O)N5CCC(Nc6ncc(C(F)(F)F)cn6)CC5)cc4)CC3)cc21 [Example 64, 1-(1-methyl-6-(1-(4-((4-((5-(trifluoro-methyl)pyrimidin-2-yl)amino)piperidin-1-yl)sulfonyl)benzyl)piperidin-4-yl)-1H-indazol-3-yl)dihydropyrimidine-2,4(1H,3H)-dione]
DC50 (CDK2 [1]): 1 to 10 nM
IC50 (CDK2 [2]): 1 to 100 nM

Cn1c(=O)n(C2CCC(=O)NC2=O)c2cccc(C3CCN(CC4CCN(c5cc(S(=O)(=O)N6CCC(Nc7ncc(C(F)(F)F)cn7)CC6)ccc5C#N)CC4)CC3)c21 (centres unmarked) [Example 181, 2-(4-((4-(1-(2,6-dioxopiperidin-3-yl)-3-methyl-2-oxo-2,3-dihydro-1H-benzo[d]imidazol-4-yl)piperidin-1-yl)methyl)piperidin-1-yl)-4-((4-((5-(trifluoromethyl)pyrimidin-2-yl)amino)piperidin-1-yl)sulfonyl)benzonitrile]
DC50 (CDK2 [1]): 1 to 10 nM
IC50 (CDK2 [2]): 1 to 100 nM

CC(Cc1cccc(S(=O)(=O)N2CCC(Nc3ncc(C(F)(F)F)cn3)CC2)c1)CN1CCC(c2ccc3c(N4CCC(=O)NC4=O)nn(C)c3c2)CC1 (centres unmarked) [Example 29]
DC50 (CDK2 [1]): 1 to 10 nM
IC50 (CDK2 [2]): 1 to 100 nM

Cn1c(=O)n(C2CCC(=O)NC2=O)c2cccc(C3CCN(Cc4cc(F)cc(S(=O)(=O)N5CCC(Nc6ncc(OC(F)F)cn6)CC5)c4)CC3)c21 (centres unmarked) [Example 184, 3-(4-(1-(3-((4-((5-(difluoromethoxy)pyrimidin-2-yl)amino)piperidin-1-yl)sulfonyl)-5-fluorobenzyl)piperidin-4-yl)-3-methyl-2-oxo-2,3-dihydro-1H-benzo[d]imidazol-1-yl)piperidine-2,6-dione]
DC50 (CDK2 [1]): 1 to 10 nM
IC50 (CDK2 [2]): 1 to 100 nM

Cn1nc(N2CCC(=O)NC2=O)c2ccc(C3CCN(CC4CCN(c5cc(S(=O)(=O)N6CCC(Nc7ncc(Cl)cn7)CC6)ccc5C#N)CC4)CC3)cc21 [Example 148, 4-((4-((5-chloropyrimidin-2-yl)amino)piperidin-1-yl)sulfonyl)-2-(4-((4-(3-(2,4-dioxotetrahydropyrimidin-1(2H)-yl)-1-methyl-1H-indazol-6-yl)piperidin-1-yl)methyl)piperidin-1-yl)benzonitrile]
DC50 (CDK2 [1]): 10 to 100 nM
IC50 (CDK2 [2]): 1 to 100 nM

Cn1nc(N2CCC(=O)NC2=O)c2ccc(C3CCN(Cc4cccc(S(=O)(=O)N5CCC(Nc6ncc(Br)cn6)CC5)c4)CC3)cc21 [Example 24, 1-(6-(1-(3-((4-((5-bromopyrimidin-2-yl)amino)piperidin-1-yl)sulfonyl)benzyl)-piperidin-4-yl)-1-methyl-1H-indazol-3-yl)dihydropyrimidine-2,4(1H,3H)-dione]
DC50 (CDK2 [1]): 1 to 10 nM
IC50 (CDK2 [2]): 100 to 500 nM

Cn1nc(N2CCC(=S)NC2=O)c2ccc(C3CCN(CC4CCN(c5cccc(S(=O)(=O)N6CCC(Nc7ncc(Cl)cn7)CC6)c5)CC4)CC3)cc21 [Example 239, 1-(6-(1-((1-(3-((4-((5-chloropyrimidin-2-yl)amino)piperidin-1-yl)sulfonyl)phenyl)piperidin-4-yl)methyl)piperidin-4-yl)-1-methyl-1H-indazol-3-yl)-4-thioxotetrahydropyrimidin-2(1H)-one]
DC50 (CDK2 [1]): 10 to 100 nM
IC50 (CDK2 [2]): 100 to 500 nM

Cn1nc(N2CCC(=O)NC2=O)c2cc(F)c(C3CCN(CC4CCN(c5cccc(S(=O)(=O)N6CCC(Nc7ncc(C(F)(F)F)cn7)CC6)c5)CC4)CC3)cc21 [Example 100, 1-(5-fluoro-1-methyl-6-(1-((1-(3-((4-((5-(trifluoromethyl)pyrimidin-2-yl)amino)-piperidin-1-yl)sulfonyl)phenyl)piperidin-4-yl)methyl)piperidin-4-yl)-1H-indazol-3-yl)dihydropyrimidine-2,4(1H,3H)-dione]
DC50 (CDK2 [1]): 10 to 100 nM
IC50 (CDK2 [2]): 1 to 100 nM

Cn1nc(N2CCC(=O)NC2=O)c2ccc(C3CCN(CC(C)(C)Cc4cccc(S(=O)(=O)N5CCC(Nc6ncc(C(F)(F)F)cn6)CC5)c4)CC3)cc21 [Example 55, 1-(6-(1-(2,2-dimethyl-3-(3-((4-((5-(trifluoro-methyl)pyrimidin-2-yl)amino)piperidin-1-yl)sulfonyl)phenyl)propyl)piperidin-4-yl)-1-methyl-1H-indazol-3-yl)dihydropyrimidine-2,4(1H,3H)-dione]
DC50 (CDK2 [1]): 10 to 100 nM
IC50 (CDK2 [2]): 1 to 100 nM

Cn1c(=O)n(C2CCC(=O)NC2=O)c2ccc(C3CCN(CC4CCN(c5cccc(S(=O)(=O)N6CCC(Nc7ncc(C(F)(F)F)cn7)CC6)c5)CC4)CC3)cc21 (centres unmarked) [Example 177, 3-(3-methyl-2-oxo-5-(1-((1-(3-((4-((5-(trifluoromethyl)pyrimidin-2-yl)amino)piperidin-1-yl)sulfonyl)phenyl)piperidin-4-yl)methyl)piperidin-4-yl)-2,3-dihydro-1H-benzo[d]imidazol-1-yl)piperidine-2,6-dione]
DC50 (CDK2 [1]): 1 to 10 nM
IC50 (CDK2 [2]): 1 to 100 nM

Cn1nc(N2CCC(=O)NC2=O)c2ccc(C3CCN(CC4CCN(c5cc(S(=O)(=O)N6CCC(Nc7ncc(Cl)cn7)CC6)ccc5C#N)CC4)CC3)c(F)c21 [Example 150, 4-((4-((5-chloropyrimidin-2-yl)amino)piperidin-1-yl)sulfonyl)-2-(4-((4-(3-(2,4-dioxotetrahydropyrimidin-1(2H)-yl)-7-fluoro-1-methyl-1H-indazol-6-yl)piperidin-1-yl)methyl)piperidin-1-yl)benzonitrile]
DC50 (CDK2 [1]): 10 to 100 nM
IC50 (CDK2 [2]): 1 to 100 nM

O=C1CCC(N2Cc3cc(N4CCN(Cc5cccc(S(=O)(=O)N6CCC(Nc7ncc(OC(F)F)cn7)CC6)c5)CC4)c(F)cc3C2=O)C(=O)N1 (centres unmarked) [Example 43, 3-(5-(4-(3-((4-((5-(difluoromethoxy)-pyrimidin-2-yl)amino)piperidin-1-yl)sulfonyl)benzyl)piperazin-1-yl)-6-fluoro-1-oxoisoindolin-2-yl)piperidine-2,6-dione]
DC50 (CDK2 [1]): 10 to 100 nM
IC50 (CDK2 [2]): 100 to 500 nM

Cn1nc(N2CCC(=O)NC2=O)c2ccc(C3CCN(Cc4cccc(S(=O)(=O)N5CCC(Nc6ncc(Cl)cn6)CC5)c4)CC3(F)F)cc21 (centres unmarked) [Example 33, 1-(6-(1-(3-((4-((5-chloropyrimidin-2-yl)amino)piperidin-1-yl)sulfonyl)benzyl)-3,3-difluoropiperidin-4-yl)-1-methyl-1H-indazol-3-yl)dihydropyrimidine-2,4(1H,3H)-dione]
DC50 (CDK2 [1]): 10 to 100 nM
IC50 (CDK2 [2]): 100 to 500 nM

Cn1nc(N2CCC(=O)NC2=O)c2ccc(C3CCN(CC4CCN(c5cc(S(=O)(=O)N6CCC(Nc7ncc(OC(F)F)cn7)CC6)ccc5C#N)CC4)CC3)c(F)c21 [Example 192, 4-((4-((5-(difluoromethoxy)pyrimidin-2-yl)amino)piperidin-1-yl)sulfonyl)-2-(4-((4-(3-(2,4-dioxotetrahydropyrimidin-1(2H)-yl)-7-fluoro-1-methyl-1H-indazol-6-yl)piperidin-1-yl)methyl)piperidin-1-yl)benzonitrile]
DC50 (CDK2 [1]): 1 to 10 nM
IC50 (CDK2 [2]): 1 to 100 nM
